Blank lines part the entries; values can stand above or below the substance they belong to. Where no end group is shown, it is not given here.
Experiments:
Factor IX zymogen [1] = target: T1, Factor IX zymogen (Homo sapiens, UniProt P00740); experiment: Plasma-derived Factor IX affinity chromatography; assay type: binding; design: A 1.0 ml injection of human citrated plasma was contacted with an acetyl-YANKGY-TSK column; from tissue; host or cells: human citrated plasma; details: 1.0 ml human citrated plasma
Description: (§1) Affinity Purification of Target Protein Affinity purification of target protein was used to assess the ability to purify proteins with the peptide sequences identified as being specific. […] The deprotected peptide-resin was dry packed into a blank column as described above and washed with 20 column volumes of 20% methanol/water, then 10 column volumes of Buffer A, and assayed by sequential 1.0 mL injections of 1) Buffer A blank, 2) 0.5% HSA, and 3) target protein in 0.5% HSA. Non-specifically bound proteins were washed off the column in a step gradient of 1.0M NaCl for two column volumes, and the target protein was eluted from the column in a weak acid solution.
Plasma-Derived Factor IX Affinity Chromatography The relevance of this library-derived peptide ligand is to purify human Factor IX zymogen from unpurified human plasma. A 1.0 ml injection of human citrated plasma was contacted with an acetyl-YANKGY-TSK column in the manner taught in the above example. Flow through and acid peaks were collected on ice and immediately assayed for total protein, SDS-PAGE and Western blot analyses. […] Samples were normalized to total protein as described before. There are numerous protein bands in the starting material, the predominant being albumin. The Factor IX band is not visible in any fraction in the Commassie stained gel. […] With one pass over the YANKGY-TSK affinity column, analyzing total protein and by Western blot, the approximate purification was 200 fold from plasma.

Factor IX zymogen [2] = target: T1, Factor IX zymogen; experiment: Two color peptide library immunostaining chromatography of hexamer library; assay type: binding; design: purchased Enzyme Research Labs; South Bend, Ind; details: 6 beads isolated from two independent analyses
Description: (§2) HPLC Library Immuno-Assays To differentiate between detecting reagent-binding and target-binding peptide-resin beads, we developed a two color peptide library staining chromatography technique. FIG. 1 is a schematic of the preferred embodiment of the technique. All assays were performed on an Ultrafast Microprotein Analyzer in a 2.1 mm I.D.×150mm long stainless steel column (volume=520 μL) at 37° C. Dry library resin was packed into the column by vacuum, then the column was attached to the detector flow cell and washed with 20 column volumes of 20% methanol/water, 5 column volumes of 100% Buffer A (10 mM HEPES, 100 mM NaCl, 2.5 mM CaCl2, 20 mg/mL D-mannitol; all from Sigma Chemical Co.; St. Louis, Mo.), then 5 column volumes of 50% Buffer B (Buffer A with 1.0M NaCl) to clean the resin. The complete assay comprised of seven chromatography injection programs sequentially linked and executed as a batch (EXChrom Chromatography Data System, Scientific Software, Inc.; San Ramon, Calif.). Each injection program was 90 min long. At the start of each injection program, a 1.0 mL sample loop of reagent was injected at 200 μL/min for 3.5 min, then allowed to perfuse the column at 5 μL/min for 50 min before the flow increased to 400/μL/min for the duration of the run. At 60-75 min, a salt gradient from 0.1M to 1.0M NaCl eluted non-specific binding proteins. […]

Factor IX zymogen [3] = target: T1, Factor IX zymogen; experiment: Factor IX/albumin affinity purification on peptide-resin column; assay type: binding; design: purchased Enzyme Research Labs; South Bend, Ind
Description: as §1
(§3) Factor IX/Albumin Affinity Purification The library-derived peptide identified above binds and purifies a mixture of a commercially available, highly purified Factor IX zymogen in a solution of human serum albumin. […] This peptide-resin was tested for its ability to bind Factor IX. […] However, this was eluted by the salt wash as evidenced by the absence of a peak during the acid elution. In contrast, when Factor IX was added to the HSA, there was a distinct peak eluted by the acid.
A direct correlation was seen between the acid peak area and the amount of Factor IX injected. […] Aliquots of fractions taken from this run were assayed for Factor IX detection by ELISA (data not shown). […] Factor IX may be partially denatured during the acid elution which could account for the lack of full recovery based on ELISA results. Indeed, controls of adding acid to Factor IX prior to analysis in the ELISA do show a 40 to 50% decrease in the ELISA signal. The remainder of the fractions were precipitated in cold (-20° C.) acetone and analyzed by reducing SDS-PAGE, normalizing sample to total protein.

[4] = target: T2, human serum albumin (HSA) (Homo sapiens, UniProt P02768); experiment: Binding of carrier protein to peptide-resin column; details: 0.5% HSA; eluted by the salt wash, no peak during acid elution
T2 construct: purchased Miles, Inc., Clayton, N.C
Description: as §1, §3

RNase S protein = target: T3, RNase S protein (Bos taurus, UniProt P61823); experiment: HPLC affinity chromatography validation on peptide-resin; assay type: binding; details: 42 nmoles RNase S protein injected; 2 % acetic acid wash, peak at 22 min
T3 sequence (P61823 47-150 limits assumed): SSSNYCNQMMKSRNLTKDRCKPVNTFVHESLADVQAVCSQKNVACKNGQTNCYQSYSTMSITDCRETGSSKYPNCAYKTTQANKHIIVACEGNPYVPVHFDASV
Description: as §1
Ribonuclease S Protein Affinity Chromatography In this embodiment the HPLC affinity methodology is validated by the previously described RNase S protein/YNFEVL peptide system. Peptide synthesis was performed as taught in the previous section. […] 42 nmoles of RNase S protein was injected in a 1.0 mL volume onto the column at 200 μL/min for 3 min. The flow was decreased to 5 μL/min for 5 min to perfuse the column, then increased to 400 μL/min to wash off the unbound protein. At 13 min, an injection of 1.0 mL Buffer A with 1.0M NaCl eluted non-specific binding proteins, then the column was returned to 0.1M NaCl until 19 min when a steep gradient to 2 % acetic acid in water and a flow of 800 μL/min began. […]

[5] = target: T4, Ribonuclease S (RNase S) protein (Bos taurus, UniProt P61823); experiment: Two color peptide library immunostaining chromatography (HPLC library immunoassay), validation; assay type: binding; details: peptide-resin diluted 1:20 w/w with TSK-Blank
T4 sequence (P61823 47-150 limits assumed): T3 sequence (P61823 47-150 limits assumed)
Description: as §2

streptavidin = streptavidin (Streptomyces avidinii, UniProt P22629); details: well known in the art; cited from earlier work

T1 sequence (P00740 29-461 limits assumed): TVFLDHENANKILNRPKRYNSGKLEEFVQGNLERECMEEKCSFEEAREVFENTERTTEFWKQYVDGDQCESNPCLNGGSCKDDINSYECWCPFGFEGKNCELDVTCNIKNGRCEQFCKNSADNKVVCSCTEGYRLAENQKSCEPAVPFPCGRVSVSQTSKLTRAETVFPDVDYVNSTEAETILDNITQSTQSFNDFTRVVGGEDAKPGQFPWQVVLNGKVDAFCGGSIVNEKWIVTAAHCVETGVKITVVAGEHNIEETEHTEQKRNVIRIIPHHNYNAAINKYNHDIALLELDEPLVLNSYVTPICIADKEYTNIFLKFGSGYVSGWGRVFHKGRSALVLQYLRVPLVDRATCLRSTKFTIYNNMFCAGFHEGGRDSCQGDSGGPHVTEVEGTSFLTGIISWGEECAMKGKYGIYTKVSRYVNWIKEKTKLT
T2 sequence (P02768 25-609): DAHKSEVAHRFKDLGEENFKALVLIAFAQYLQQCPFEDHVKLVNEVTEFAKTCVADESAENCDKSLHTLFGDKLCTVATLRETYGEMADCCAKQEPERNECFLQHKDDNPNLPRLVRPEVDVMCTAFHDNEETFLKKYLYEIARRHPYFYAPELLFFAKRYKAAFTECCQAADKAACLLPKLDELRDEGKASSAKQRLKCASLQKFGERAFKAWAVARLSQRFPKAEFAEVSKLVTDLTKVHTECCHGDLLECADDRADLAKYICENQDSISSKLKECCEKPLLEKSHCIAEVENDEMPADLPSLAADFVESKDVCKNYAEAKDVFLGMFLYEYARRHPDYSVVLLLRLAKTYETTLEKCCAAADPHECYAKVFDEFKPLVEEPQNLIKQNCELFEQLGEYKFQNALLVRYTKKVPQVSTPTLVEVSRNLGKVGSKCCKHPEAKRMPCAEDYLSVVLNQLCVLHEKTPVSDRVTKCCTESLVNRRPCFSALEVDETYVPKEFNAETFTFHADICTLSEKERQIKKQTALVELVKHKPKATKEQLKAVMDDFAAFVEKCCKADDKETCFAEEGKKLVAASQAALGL

Substance: YANKGY [YANKGY-TSK]
- bead staining in library immunoassay (red = target specific) (Factor IX zymogen [2]): red bead
- Factor IX detected in NaCl peak by ELISA, % of amount injected (Factor IX zymogen [3]; 220 μg Factor IX in HSA): 17%
- Factor IX detected in acid peak by ELISA, % of amount injected (Factor IX zymogen [3]; 220 μg Factor IX in HSA): 25%
- Factor IX detected in flow through peak by ELISA (Factor IX zymogen [3]; 220 μg Factor IX in HSA): No Factor IX was detected
- Factor IX in NaCl wash and acid peak by Western blot (Factor IX zymogen [3]; 220 μg Factor IX in HSA): dark bands corresponding to Factor IX
- Factor IX in flow-through fractions by Western blot (Factor IX zymogen [3]; 220 μg Factor IX in HSA): no detectable Factor IX
- binding of Factor IX to peptide-resin (Factor IX zymogen [3]; Factor IX in 0.5% HSA, acid elution): does bind Factor IX
- HSA binding to column [4]: bound to the column to a small extent
- approximate purification of Factor IX from plasma (Factor IX zymogen [1]; one pass, by total protein and Western blot): ~200 fold

Substance: YNFEVL [YNFEVL-TSK]
- elution of bound RNase S protein (RNase S protein): target protein eluted in the acid wash
- frequency of dark blue beads (non-specific or immunoreagent-specific interactions) [5]: less than 0.01%
- frequency of red beads (target protein interacting with peptide-resin beads) ([5]; RNase S protein in HSA carrier): 5%

Substance: HPQ
- binding to streptavidin (streptavidin): will bind streptavidin

Further lines, results first:

- Factor IX in acid peak by Western blot (Factor IX zymogen [1]): a very large band in the acid peak
- Factor IX in flow through by Western blot (Factor IX zymogen [1]): no Factor IX in the flow through
Substance: Ac-YANKGY [acetyl-YANKGY-TSK]

- bead staining in library immunoassay (red = target specific) (Factor IX zymogen [2]): red bead
Substance: YNYFNQ
